Type in all cases: in vivo, rat
Data set [1] in a line: Evaluation of pharmacokinetics after topical eye drops. As to conditions: rats, topical eye drops 1 mg/mL in castor oil over four to seven days, expected trough, n = 2; for Mean concentration of test compound, Back of the eye / Mean concentration of test compound, Cornea / Mean concentration of test compound, Lacrimal gland and duct / Mean concentration of test compound, Lens and humor: wet tissue weight. The protocol: Evaluation of Pharmacokinetics
To evaluate the pharmacokinetics of test substances in vivo, these test substances are dissolved in appropriate formulation vehicles (e.g. castor oil). The test substances are then administered to rats topically as eye drops over four to seven days. Administered doses range usually between 0.1 to 5 mg/mL. Blood samples and ocular tissue samples are taken at the time of expected trough concentration, i.e. just before the next dosing would have occurred. Blood samples are retrieved via exsanguination in vials containing appropriate anticoagulants, such as lithium heparinate or potassium EDTA. Plasma is generated from the blood via centrifugation. Eyes are enucleated and briefly washed in PBS to remove possible remains of the topical formulation. Eyes are dissected and tissues of interest, e.g. cornea, lacrimal gland and duct, lens and humor and back of the eye tissue, are collected separately. Ocular tissues are pooled per individual animal, diluted in appropriate amounts of 0.9% NaCl in water and homogenized using a Tissuelyzer or equivalent system. The quantitative measurement of the test substances in the samples is performed using calibration curves in the respective matrices. The protein content of the samples is precipitated using acetonitrile or methanol. Thereafter, the samples are separated using HPLC in combination with reversed phase chromatography columns. The HPLC system is coupled to a triple quadrupole mass spectrometer via an electrospray interface. Particularly, HPLC was performed using a C18 column (e.g. Phenomenex Kinetex C18 5 mm 5 μm 2.1×50) and a mixture of 10 mM ammonium acetate pH6.8 and acetonitrile in a gradient with an increasing fraction of organic solvent. The retention time for the compound of example 2 was for example ca. 2.6 min.
Data: Mean concentration of test compound (μg/L of plasma or μg/kg of wet tissue weight), samples with concentrations below the lower limit of quantification (LOQ) are denoted as “<LOQ”, n corresponds to the number of the treated animals

In data set [2] the test system is Sprague Dawley rats. Nature of the data set: Lacrimal gland removal model with pain behavior read out (wipe test). As to conditions: rats after lacrimal gland removal; after two and four weeks of treatment, compared to vehicle (FIG. 1). The protocol:
Lacrimal Gland Removal Model with Pain Behavior Read Out
(§1) Sprague Dawley rats were anesthetized by intraperitoneal injection of 75 mg/kg ketamine +7.5 mg/kg xylazine hydrochloride. After removal of the facial hair, a 2 mm incision was carefully made between temporal lid margin and zygomatic arch. Bluntly separating the underlying tissue, exposing the fascia covering the intra-orbital lacrimal gland, avoiding the nerves and blood vessels. A small incision was made on the fascia, and the intra-orbital gland was gently pulled out and excised. The incision was sutured with a 8-0 polysorb suture and the skin was closed with a 5-0 polysorb suture (Ethilon; Ethicon Inc, Somerville, N.J.). A 3 mm incision was made just below the earlobe, and the extra-orbital lacrimal gland was pulled out and excised along its stem. This incision was closed in a manner similar as described above.
Acclimate rat in a quiet, clean, clear cage for 15 minutes. Gently hold head of rat, add one drop of 5M NaCl in the rat right eye, and start count wipes (front limb wipe across the face) for 30 seconds. Repeat wipe test in left eye. Wash each eye with 10 ml NS. […] The number of eye wipes over a period of thirty seconds was determined for each animal and averaged at various timepoints. […]

The test system of data set [3] is Sprague Dawley rats. Nature of the data set: Lacrimal gland removal model, corneal nerve density measurement (IVCM). As to conditions: rats after lacrimal gland removal; treatment started two weeks post removal, compared to vehicle (FIG. 2). Here is the method:
as §1
Nerve Density Measurement: […]

With `N#Cc1cnn(-c2ccc(NC(=O)Cc3ccccc3Cl)cc2S(N)(=O)=O)c1` [2-(2-Chlorophenyl)-N-[4-(4-cyano-1H-pyrazol-1-yl)-3-sulfamoylphenyl]acetamide, reference compound], in data set [1], the “Mean concentration of test compound, Plasma” value is 2.37 ng/mL; the “Mean concentration of test compound, Back of the eye” value was 14.5 µg/kg; the “Mean concentration of test compound, Cornea” value came to 13.4 µg/kg; the “Mean concentration of test compound, Lacrimal gland and duct” value amounted to 33.4 µg/kg. For the same molecule, the “Mean concentration of test compound, Lens and humor” value in data set [1] is below 4.0 µg/kg.
Regarding `CC(=O)N(c1ccc(F)cc1)c1cc(NC(=O)Cc2cccc(F)c2Cl)ccn1` [Example 2, N-{4-[2-(2-chloro-3-fluorophenyl)acetamido]pyridin-2-yl}-N-(4-fluorophenyl)acetamide], the “Eye wipe count (5M NaCl, 30 seconds)” value in the data set on Sprague Dawley rats [2] is recorded as “no apparent further increase in wipe count”. Moreover, the “Corneal nerve density (fold difference from baseline)” value in the data set on Sprague Dawley rats [3] was “a decline in nerve density could be observed”. Also, in data set [1], the “Mean concentration of test compound, Plasma” value amounted to 0.4 ng/mL; the “Mean concentration of test compound, Back of the eye” value is 13.8 µg/kg; the “Mean concentration of test compound, Cornea” value came out at 44.9 µg/kg; the “Mean concentration of test compound, Lacrimal gland and duct” value turned out to be 17.4 µg/kg. Also, in data set [1], the “Mean concentration of test compound, Lens and humor” value is 1.8 µg/kg.

For the origin of these results see patent US20230270729A1, “USE OF N-[…] HAVING P2X4 RECEPTOR ANTAGONISTIC ACTIVITY FOR TREATING CERTIAN OCULAR DISORDERS” (Bayer Aktiengesellschaft, priority 2020, published 2023).
